Drawing on patent publication US20250282754A1, “BICYCLIC COMPOUNDS AND THEIR USE AS PEST CONTROL AGENTS” (Pl Industries Ltd., priority 2022, published 2025), this text covers mortality for 55 compounds.

Bounds are passed on as bounds.

One experiment relates to Bemisia tabaci. The experiment is described as follows: Bemisia tabaci leaf dip test (brinjal leaves, whitefly adults). Format: in vivo. The settings on record: foliar, dead and moribund whitefly adults 72 h after release, compared to untreated controls, read-out: percent mortality. The protocol:
The leaf dip method was used for testing, wherein the required quantity of the compound was weighed and dissolved in a tube containing a solvent solution. The tube was put on a vortex at 2000 rpm for proper mixing and then diluted with a 0.01% Triton-X solution to the desired test concentration. Brinjal leaves were dipped in the compound solution for 10 seconds; shade dried for 20 min and then placed, with the abaxial side of the leaf up, on 4 ml of a solidified 1% agar-agar solution in respective container caps. Known numbers of freshly emerged whitefly adults were collected, using a modified aspirator, and released into a perforated container in which the cap containing the treated leaf was placed. The containers were kept in a plant growth chamber at a temperature of 25° C. and relative humidity of 70%. Observations on dead, moribund and alive adults were recorded 72 h after the release. Percent mortality was calculated by combining dead and moribund adults and comparing the result to the one of the untreated controls. The compounds 1 9 11 18 25 28 29 30 31
With `CC(C)S(=O)(=Nc1ccc2nn(-c3cncnc3)cc2c1)c1ccc(F)cc1` (stereo not shown) [Compound 18], the mortality at 300 ppm was at least 70%. For `CC(C)S(=O)(=Nc1ccc2nn(-c3cncnc3)cc2c1)C(C)C` [Compound 31], the mortality at 300 ppm was at least 70%.

Turning to `CCS(=O)(=Nc1ccc2nn(-c3cncnc3)cc2c1)c1ccccc1` (stereo not shown) [Compound 34], the mortality at 300 ppm was at least 70%. In the case of `CCS(=O)(CC)=Nc1ccc2nn(-c3ccnnc3)cc2c1` [Compound 43], the mortality at 300 ppm is at least 70%.

For `CCS(=O)(=Nc1ccc2nn(-c3ccnnc3)cc2c1)C(C)C` (stereo not shown) [Compound 48], the mortality at 300 ppm is at least 70%. As to `O=S(CCC(F)(F)F)(=Nc1ccc2nn(-c3cncc(F)c3)cc2c1)c1ccccc1` (stereo not shown) [Compound 65], the mortality at 300 ppm was at least 70%.

For `COc1ccc(S(=O)(CCC(F)(F)F)=Nc2ccc3nn(-c4cncc(F)c4)cc3c2)cc1` (stereo not shown) [Compound 66], the mortality at 300 ppm was at least 70%. Take `O=S(CCC(F)(F)F)(=Nc1ccc2nn(-c3ccnnc3)cc2c1)c1ccccc1` (stereo not shown) [Compound 68]: the mortality at 300 ppm is at least 70%.

As for `CC(C)S(C)(=O)=Nc1cccc2nn(-c3cccnc3)cc12` (stereo not shown) [Compound 74], the mortality at 300 ppm was at least 70%. Take `CCCS(=O)(CCC)=Nc1cccc2nn(-c3cncc(F)c3)cc12` [Compound 77]: the mortality at 300 ppm is at least 70%. On to `CC(C)CS(=O)(CC(C)C)=Nc1ccc2nn(-c3cccnc3)cc2c1` [Compound 79], for which the mortality at 300 ppm is at least 70%.

In the case of `CC(C)S(=O)(CCC(F)(F)F)=Nc1ccc2nn(-c3cncnc3)cc2c1` (stereo not shown) [Compound 101, isopropyl((2-(pyrimidin-5-yl)-2H-indazol-5-yl)imino)(3,3,3-trifluoropropyl)-λ^6-sulfanone], the mortality at 300 ppm is at least 70%. `CCS(=O)(=Nc1ccc(F)c2nn(-c3cccnc3)cc12)C(C)C` (stereo not shown) [Compound 108]: the mortality at 300 ppm was at least 70%.

As for `CCS(C)(=O)=Nc1ccc(F)c2nn(-c3cccnc3)cc12` (stereo not shown) [Compound 109], the mortality at 300 ppm is at least 70%. Regarding `COc1nn(-c2ccc3nn(-c4ccc(C)nc4C)cc3c2)c(=O)n1C` [Compound 116, 2-(2-(2,6-dimethylpyridin-3-yl)-2H-indazol-5-yl)-5-methoxy-4-methyl-2,4-dihydro-3H-1,2,4-triazol-3-one], the mortality at 300 ppm is at least 70%. `COc1nn(-c2ccc3nn(-c4cccnc4)cc3c2)c(=O)n1Cc1ccccc1F` [Compound 122, 4-(2-fluorobenzyl)-5-methoxy-2-(2-(pyridin-3-yl)-2H-indazol-5-yl)-2,4-dihydro-3H-1,2,4-triazol-3-one]: the mortality at 300 ppm was at least 70%. The same measure, in the same setting: for `CCN(C)S(=O)(=Nc1ccc2nn(-c3cncnc3)cc2c1)C1CC1` (stereo not shown) [Compound 135, N-ethyl-N-methyl-N′-(2-(pyrimidin-5-yl)-2H-indazol-5-yl)cyclopropanesulfonimidamide] the value was at least 70%; for `CCCS(=O)(CCC)=Nc1cnc2nn(-c3cncnc3)cc2c1` [Compound 184], at least 70%; for `CC(C)S(C)(=O)=Nc1ccc2nn(-c3cncnc3)cc2n1` (stereo not shown) [Compound 213], at least 70%. Turning to `CCCCS(=O)(CC)=Nc1ccc2nn(-c3cccnc3)cc2n1` (stereo not shown) [Compound 214], the mortality at 300 ppm was at least 70%. On the same count and under the same terms, under `CCS(=O)(CC)=Nc1ccc2nn(-c3cncnc3)cc2n1` [Compound 219] stands at least 70%; under `CCCCS(=O)(CC)=Nc1ccc2nn(-c3cncnc3)cc2n1` (stereo not shown) [Compound 220], at least 70%; under `CC(C)CS(=O)(CC(C)C)=Nc1ccc2nn(-c3cncnc3)cc2n1` [Compound 221], at least 70%. On to `CS(=O)(=Nc1ccc2nn(-c3cncnc3)cc2n1)C1CCCCC1` (stereo not shown) [Compound 223], for which the mortality at 300 ppm was at least 70%. Take `CS(C)(=O)=NC(=O)c1ccc2nn(-c3cncnc3)cc2c1` [Compound 228, N-(dimethyl(oxo)-λ^6-sulfaneylidene)-2-(pyrimidin-5-yl)-2H-indazole-5-carboxamide]: the mortality at 300 ppm is at least 70%.

On to `CCS(=O)(CC)=NC(=O)c1ccc2nn(-c3cncnc3)cc2c1` [Compound 231, N-(diethyl(oxo)-λ^6-sulfaneylidene)-2-(pyrimidin-5-yl)-2H-indazole-5-carboxamide], for which the mortality at 300 ppm was at least 70%. For the compound `CCS(=O)(=Nc1ccc2nn(-c3cncnc3)cc2n1)C(C)C` (stereo not shown) [Compound 241], the mortality at 300 ppm is at least 70%.

With `CCCS(=O)(CCC)=Nc1cc2cn(-c3cncnc3)nc2cn1` [Compound 278], the mortality at 300 ppm is at least 70%. For `CC(C)S(=O)(CC1CCC1)=Nc1ccc2nn(-c3cccnc3)cc2n1` (stereo not shown) [Compound 289], the mortality at 300 ppm is at least 70%. With `CC(C)(C)S(C)(=O)=Nc1ccc2nn(-c3cncc(F)c3)cc2c1` (stereo not shown) [Compound 293], the mortality at 300 ppm is at least 70%. As for `CC(C)CCS(=O)(=Nc1ccc2nn(-c3cncnc3)cc2c1)C(C)C` (stereo not shown) [Compound 294], the mortality at 300 ppm is at least 70%.

Turning to `CCS(=O)(CC)=Nc1cc(C(F)(F)F)c2nn(-c3cccnc3)cc2c1` [Compound 296], the mortality at 300 ppm is at least 70%. Still for that read-out and setting: under `CCS(C)(=O)=Nc1ccc2nn(-c3cncc(F)c3)cc2n1` (stereo not shown) [Compound 307] stands at least 70%; under `CCS(=O)(CC)=Nc1ccc2nn(-c3cncc(F)c3)cc2n1` [Compound 308], at least 70%. `CCCS(C)(=O)=Nc1ccc2nn(-c3cncc(F)c3)cc2n1` (stereo not shown) [Compound 309]: the mortality at 300 ppm was at least 70%.

With `CCCS(=O)(CCC)=Nc1ccc2nn(-c3cncc(F)c3)cc2n1` [Compound 310], the mortality at 300 ppm is at least 70%. For `CC(C)S(C)(=O)=Nc1ccc2nn(-c3cncc(F)c3)cc2n1` (stereo not shown) [Compound 311], the mortality at 300 ppm is at least 70%. On the same count and under the same terms, for `CC(C)(C)S(C)(=O)=Nc1ccc2nn(-c3cncc(F)c3)cc2n1` (stereo not shown) [Compound 313] the value was at least 70%; for `COc1nn(-c2ccc3nn(-c4cccnc4)cc3c2)c(=O)n1Cc1ccc(Cl)c(Cl)c1` [Compound 368, 4-(3,4-dichlorobenzyl)-5-methoxy-2-(2-(pyridin-3-yl)-2H-indazol-5-yl)-2,4-dihydro-3H-1,2,4-triazol-3-one], at least 70%. For `COc1nn(-c2ccc3nn(-c4cccnc4)cc3c2)c(=O)n1Cc1ccc(Cl)cc1Cl` [Compound 369, 4-(2,4-dichlorobenzyl)-5-methoxy-2-(2-(pyridin-3-yl)-2H-indazol-5-yl)-2,4-dihydro-3H-1,2,4-triazol-3-one], the mortality at 300 ppm is at least 70%. For `CN=S(=O)(c1ccc2nn(-c3cccnc3)cc2c1)C(C)C` (stereo not shown) [Compound 408], the mortality at 300 ppm was at least 70%. Regarding `CC(C)S(=N)(=O)c1ccc2nn(-c3cncnc3)cc2c1` (stereo not shown) [Compound 410, imino(isopropyl)(2-(pyrimidin-5-yl)-2H-indazol-5-yl)-λ^6-sulfanone], the mortality at 300 ppm was at least 70%. Take `CC(=O)N=S(=O)(c1ccc2nn(-c3cncnc3)cc2c1)C(C)C` (stereo not shown) [Compound 418]: the mortality at 300 ppm was at least 70%. Consider `CC(C)S(=O)(=NC(=O)C(F)F)c1ccc2nn(-c3cncnc3)cc2c1` (stereo not shown) [Compound 421], for which the mortality at 300 ppm was at least 70%. For the compound `CCS(=O)(=Nc1cncc(C(F)(F)F)n1)c1ccc2nn(-c3cncc(F)c3)cc2c1` (stereo not shown) [Compound 463], the mortality at 300 ppm was at least 70%. As to `N=S(=O)(CC1CCC1)c1ccc2nn(-c3cncnc3)cc2c1` (stereo not shown) [Compound 465, (cyclobutylmethyl)(imino)(2-(pyrimidin-5-yl)-2H-indazol-5-yl)-λ^6-sulfanone], the mortality at 300 ppm was at least 70%.

Consider `CCN=S(=O)(CC1CCC1)c1ccc2nn(-c3cncnc3)cc2c1` (stereo not shown) [Compound 466], for which the mortality at 300 ppm is at least 70%.

Take `CC(=O)N=S(=O)(CC1CCC1)c1ccc2nn(-c3cncnc3)cc2c1` (stereo not shown) [Compound 467]: the mortality at 300 ppm was at least 70%. Still for that read-out and setting: under `N=S(=O)(c1ccc2nn(-c3cccnc3)cc2c1)C1CCC1` (stereo not shown) [Compound 554, cyclobutyl(imino)(2-(pyridin-3-yl)-2H-indazol-5-yl)-λ^6-sulfanone] stands at least 70%. Turning to `N=S(=O)(CCC1CCCCC1)c1ccc2nn(-c3cccnc3)cc2c1` (stereo not shown) [Compound 561, (2-cyclohexylethyl)(imino)(2-(pyridin-3-yl)-2H-indazol-5-yl)-λ^6-sulfanone], the mortality at 300 ppm is at least 70%.

For the compound `N=S(=O)(CCC(F)(F)F)c1ccc2nn(-c3cccnc3)cc2c1` (stereo not shown) [Compound 580, imino(2-(pyridin-3-yl)-2H-indazol-5-yl)(3,3,3-trifluoropropyl)-λ^6-sulfanone], the mortality at 300 ppm is at least 70%.

The next experiment concerns Nilaparvata lugens. The experiment is described as follows: Nilaparvata lugens seedling dip test (paddy seedlings, third instar nymphs). The experiment is classed as in vivo. The settings on record: dead and moribund third instar nymphs 72 h after release, compared to untreated controls, read-out: percent mortality. The protocol: The seedling dip method was used for testing, wherein the required quantity of the compound was weighed and dissolved in a tube containing a solvent solution. The tube was put on a vortex at 2000 rpm for proper mixing and then diluted with a 0.01% Triton-X solution to the desired test concentration. Paddy seedlings were dipped in the compound solution for 10 seconds, shade dried for 20 min and then the seedlings were placed in glass test tubes with the roots kept in water. 15 third instar nymphs of Nilaparvata lugens were released into each test tube and the tubes were kept in a plant growth chamber at a temperature of 25° C. and relative humidity of 75%. Observations on dead, moribund and alive nymphs were recorded 72 h after the release. Percent mortality was calculated by combining dead and moribund nymphs and comparing the result to the one of the untreated controls. The compounds
On to `CCS(C)(=O)=Nc1ccc2nn(-c3cncc(F)c3)cc2c1` (stereo not shown) [Compound 5], for which the mortality at 300 ppm is at least 70%. Turning to `CS(C)(=O)=Nc1ccc2nn(-c3cncc(F)c3)cc2c1` [Compound 8], the mortality at 300 ppm was at least 70%. Take `CS(=O)(Cc1ccccc1)=Nc1ccc2nn(-c3cncc(F)c3)cc2c1` (stereo not shown) [Compound 13]: the mortality at 300 ppm is at least 70%. Same read-out and setting: under `CS(=O)(=Nc1ccc2nn(-c3cncc(F)c3)cc2c1)c1ccccc1` (stereo not shown) [Compound 14] stands at least 70%.

In general, mortality refers to the percentage killed.
